{"source": "patent US7638554B2", "about": "“Flavanoids as chemotherapeutic, chemopreventive, and antiangiogenic agents” (SRI International, priority 2002, dated 2009)", "key": {"[1]": {"system": "MCF-7 (ER+) breast cancer cell line", "experiment": "Growth inhibition assay, MTT, MCF-7 breast cancer cells", "format": "cell-based, human", "settings": "MTT assay, eight days, average of at least two experiments, read-out: GROWTH INHIBITION (IC50) MCF-7 (ER+)", "procedure": "(§1) Compounds of the invention were tested for their ability to inhibit growth in two breast cancer cell lines, MCF-7 (ER+) and MDA-MB-231 (ER−).\n(§2) The growth inhibition assays were conducted using routine methods. Briefly, the cells were seeded in 24-well plates at a density of 2000 cells per well in 200 μL of […] growth medium. To each well was added 10 μL of DMSO containing the dissolved test compound; final DMSO concentration in each well was not more than 0.5%. Each test compound was assayed at concentrations of 0.4, 2, 10, and 50 μM. The plates were incubated for eight days, with the media and test solutions replaced every third day. On Day 8, the viable cells were measured by the MTT assay, as described in Mosmann et al. (1983), “Rapid Colorimetric Assay for Cellular Growth and Survival: Application to Proliferation and Cytotoxicity,” J. Immunol. Method. 65:55-63. The optical density at 575 nm of each test well was measured and compared to that for control wells, and the data used to calculate the percentage of growth inhibition at different concentrations. The IC50 value (the concentration of growth inhibitor that results in 50% growth inhibition of the cells in culture relative to control cells not exposed to any growth inhibitor) was determined by plotting dose-response curves.\n(§3) The calculated IC50 values are set forth in Table 1, with the results representing the average of at least two experiments conducted for each compound at each of the four concentrations."}, "[2]": {"system": "MDA-MB-231 (ER−) breast cancer cell line", "experiment": "Growth inhibition assay, MTT, MDA-MB-231 breast cancer cells", "format": "cell-based, human", "settings": "eight days, average of at least two experiments", "procedure": "as §1, §2, §3"}, "[3]": {"system": "chick chorioallantoic membrane (CAM) blood vessels", "experiment": "Chick chorioallantoic membrane (CAM) assay for antiangiogenic activity", "format": "in vivo", "settings": "11.1 μg/CAM, once daily for 12-14 days", "procedure": "The CAM assay, which is widely applied to evaluate in vivo antiangiogenic activity, was utilized with SR 13179.\nThe methods used were those of Folkman (Auerbach et al. (1974) Dev. Biol. 41:391-394), with some modifications. The test compound was dissolved in saline and methylcellulose, and the embryos dosed once daily for 12-14 days. Blood vessel density of each embryo was measured as the quantitative endpoint. The known antiangiogenic compound medroxyprogesterone acetate (MPA) was used as a positive control."}, "[4]": {"system": "prostate cancer cell line LNCaP", "experiment": "Growth inhibition, sulforhodamine-based protein determination, LNCaP", "format": "cell-based", "settings": "Homo sapiens, Table 5, read-out: Growth Inhibition (IC50), LNCaP cells", "procedure": "The novel compound SR 13179 was assayed for its ability to inhibit growth in several cancer cell lines. The cell lines studied included breast cancer cell line MCF-7 (ER+); prostate cancer cell lines LNCaP, PC3, and DU145; lung cancer cell line A427; ovarian cancer cell lines IGROV1, OVCAR-3, OVCAR-4, OVCAR-5, OVCAR-8, and SK-OV-3; and colon cancer cell lines COLO 205, HCC-2998, HCT-116, HCT-15, HT29, KM12, AND SW-620.\nThe growth assays for the breast cancer cell lines were conducted according to the method of Example 16. For the other cell lines, each assay was conducted with continuous exposure to the test compound at four log concentrations for six days, using a sulforhodamine-based protein determination to measure growth inhibition.\nThe procedure of Example 20 was used to evaluate the growth inhibitory effect of various compounds of the invention on LNCaP cells."}, "[5]": {"settings": "Homo sapiens, MDA-MB-231, 192 h"}}, "note": "Where two headings read alike, the source gives them in different places.", "data": [{"compound": "3-(3,4,5-Trimethoxyphenyl)-2,3-dihydro-benzo[F]chromen-1-one [SR 13182]", "values": [{"measurement": "IC50", "setting": "[1]", "result": "> 50", "unit": "µM"}, {"measurement": "IC50", "setting": "[2]", "result": "> 50", "unit": "µM"}]}, {"compound": "CC(=O)O[C@]1(C(C)=O)CC[C@H]2[C@@H]3C[C@H](C)C4=CC(=O)CC[C@]4(C)[C@H]3CC[C@@]21C", "note": "[MPA, medroxyprogesterone acetate, reference compound]", "values": [{"measurement": "Blood vessel density score", "setting": "[3]", "result": "4.5 ± 2.3"}, {"measurement": "Percent inhibition relative to control", "setting": "[3]", "result": 58, "unit": "%"}]}, {"compound": "COc1cc(/C=C/C(=O)c2ccc3ccccc3c2O)cc(OC)c1OC", "note": "[SR 13176, 1-(1-Hydroxy-naphthalen-2-yl)-3-(3,4,5-trimethoxyphenyl)-propenone]", "values": [{"measurement": "IC50", "setting": "[1]; Homo sapiens, MCF7, 192 h", "result": "> 50", "unit": "µM"}, {"measurement": "IC50", "setting": "[2]; [5]", "result": 39, "unit": "µM"}]}, {"compound": "COc1cc(C2CC(=O)c3ccc4ccccc4c3O2)cc(OC)c1OC", "note": "(centres unmarked) [SR 13177, 2-(3,4,5-TRIMETHOXYPHENYL)-2,3-DIHYDRO-BENZO[H]CHROMEN-4-ONE]", "values": [{"measurement": "IC50", "setting": "[1]; Homo sapiens, MCF7, 192 h", "result": 4.65, "unit": "µM"}, {"measurement": "IC50", "setting": "[4]", "result": 2.52, "unit": "µM"}]}, {"compound": "O=C(C=Cc1cc(OCc2ccccc2)c(OCc2ccccc2)c(OCc2ccccc2)c1)c1c(O)cc(OCc2ccccc2)cc1OCc1ccccc1", "note": "[SR 13178, 1-(2,4-Bis-benzyloxy-6-hydroxyphenyl)-3-(3,4,5-tris-benzyloxy-phenyl)-propenone]", "values": [{"measurement": "IC50", "setting": "[1]", "result": 53, "unit": "µM"}, {"measurement": "IC50", "setting": "[2]", "result": "> 100", "unit": "µM"}]}, {"compound": "O=C1CC(c2cc(OCc3ccccc3)c(OCc3ccccc3)c(OCc3ccccc3)c2)Oc2cc(OCc3ccccc3)cc(OCc3ccccc3)c21", "note": "(centres unmarked) [SR 13180, 5,7-BIS-BENZYLOXY-2-(3,4,5-TRIS-BENZYLOXY-PHENYL)-CHROMAN-4-ONE]", "values": [{"measurement": "IC50", "setting": "[1]; Homo sapiens, MCF7, 192 h", "result": "> 50", "unit": "µM"}, {"measurement": "IC50", "setting": "[2]; [5]", "result": "> 50", "unit": "µM"}]}, {"compound": "COc1cc(C2CC(=O)c3c(ccc4ccccc34)O2)cc(OC)c1OC", "note": "(centres unmarked) [SR 13181, 3′,4′,5′-TRIMETHOXY-B-NAPHTHAFLAVAN-4-ONE]", "values": [{"measurement": "IC50", "setting": "[1]", "result": "> 100", "unit": "µM"}, {"measurement": "IC50", "setting": "[2]", "result": "> 100", "unit": "µM"}]}, {"compound": "OC1CC(c2cc(OCc3ccccc3)c(OCc3ccccc3)c(OCc3ccccc3)c2)Oc2cc(OCc3ccccc3)cc(OCc3ccccc3)c21", "note": "(centres unmarked) [SR 13183, 5,7-BIS-BENZYLOXY-2-(3,4,5-TRIS-BENZYLOXY-PHENYL)-CHROMAN-4-OL]", "values": [{"measurement": "IC50", "setting": "[1]; Homo sapiens, MCF7, 192 h", "result": "> 100", "unit": "µM"}, {"measurement": "IC50", "setting": "[2]; [5]", "result": 13.6, "unit": "µM"}]}, {"compound": "O=C(/C=C/c1cc(OCc2ccccc2)c(OCc2ccccc2)c(OCc2ccccc2)c1)c1ccc2ccccc2c1O", "note": "[SR 13185, 1-(1-HYDROXY-NAPHTHALEN-2-YL)-3-(3,4,5-TRIS-BENZYLOXY-PHENYL)-PROPENONE]", "values": [{"measurement": "IC50", "setting": "[1]; Homo sapiens, MCF7, 192 h", "result": 5.08, "unit": "µM"}, {"measurement": "IC50", "setting": "[2]; [5]", "result": 0.562, "unit": "µM"}]}, {"compound": "O=C1CC(c2cc(OCc3ccccc3)c(OCc3ccccc3)c(OCc3ccccc3)c2)Oc2c1ccc1ccccc21", "note": "(centres unmarked) [SR 13186, 2-(3,4,5-TRIS-BENZYLOXY-PHENYL)-2,3-DIHYDRO-BENZO[H]CHROMEN-4-ONE]", "values": [{"measurement": "IC50", "setting": "[1]; Homo sapiens, MCF7, 192 h", "result": 7.32, "unit": "µM"}, {"measurement": "IC50", "setting": "[2]; [5]", "result": 9.84, "unit": "µM"}]}, {"compound": "COc1cc(C2CC(O)c3c(ccc4ccccc34)O2)cc(OC)c1OC", "note": "(centres unmarked) [SR 13187, 3-(3,4,5-TRIMETHOXYPHENYL)-2,3-DIHYDRO-1H-BENZO[F]CHROMEN-1-OL]", "values": [{"measurement": "IC50", "setting": "[1]; Homo sapiens, MCF7, 192 h", "result": 6.29, "unit": "µM"}, {"measurement": "IC50", "setting": "[4]", "result": 17.7, "unit": "µM"}]}, {"compound": "COc1ccc(C2CC(=O)c3c(OC)cc(OC)cc3O2)cc1", "note": "(centres unmarked) [SR 13188, 5,7-DIMETHOXY-2-(4-METHOXY-PHENYL)-CHROMAN-4-ONE]", "values": [{"measurement": "IC50", "setting": "[1]; Homo sapiens, MCF7, 192 h", "result": "> 50", "unit": "µM"}, {"measurement": "IC50", "setting": "[4]", "result": 3.34, "unit": "µM"}, {"measurement": "IC50", "setting": "[2]; [5]", "result": "> 50", "unit": "µM"}]}, {"compound": "COc1ccc(C2CC(O)c3c(OC)cc(OC)cc3O2)cc1", "note": "(centres unmarked) [SR 13189, 5,7-DIMETHOXY-2-(4-METHOXY-PHENYL)-CHROMAN-4-OL]", "values": [{"measurement": "IC50", "setting": "[1]; Homo sapiens, MCF7, 192 h", "result": "> 50", "unit": "µM"}, {"measurement": "IC50", "setting": "[2]; [5]", "result": "> 50", "unit": "µM"}]}, {"compound": "OC1CC(c2cc(OCc3ccccc3)c(OCc3ccccc3)c(OCc3ccccc3)c2)Oc2c1ccc1ccccc21", "note": "(centres unmarked) [SR 13191, 2-(3,4,5-TRIS-BENZYLOXY-PHENYL)-3,4-DIHYDRO-2H-BENZO[H]CHROMEN-4-OL]", "values": [{"measurement": "IC50", "setting": "[1]; Homo sapiens, MCF7, 192 h", "result": 19.9, "unit": "µM"}, {"measurement": "IC50", "setting": "[4]", "result": 6.58, "unit": "µM"}, {"measurement": "IC50", "setting": "[2]; [5]", "result": "> 50", "unit": "µM"}]}, {"compound": "COc1cc([C@@H]2CC(O)c3cc4c(cc3O2)CCCC4)cc(OC)c1OC", "note": "(some centres unmarked) [SR 13817, 5-(4-hydroxy-3,4,6,7,8,9-hexahydro-2H-benzo[g]chromen-2-yl)benzene-1,2,3-trimethoxy]", "values": [{"measurement": "IC50", "setting": "[1]", "result": 0.56, "unit": "µM"}, {"measurement": "IC50", "setting": "[2]", "result": 1.51, "unit": "µM"}]}]}
